IC50 data for 33 molecules are collected here from patent publication US9199962B2, “Substituted azaheterocycles for the treatment of cancer” (Merck Patent GmbH, priority 2011, dated 2015).

The target of the assay is T1, GST-FAK (N-terminal GST fusion with truncated human FAK (376-1052 (end) amino acids)) (Homo sapiens, UniProt Q05397).
T1 construct: truncated human FAK (376-1052 (end) amino acids)
Put plainly: Biochemical enzyme assay for FAK activity (Caliper LC3000 mobility shift). As to conditions: Table 3; 100 uM ATP; read-out: FAK IC50. As to the method: 1. Biochemical Enzyme Assays for FAK Activity
The FAK assays described here are performed on two Caliper Life Sciences systems, the LC3000 and the EZ Reader II. These provide data on enzyme activity via measurement of the relative amounts of phosphorylated or unphosphorylated fluorescently labelled substrate peptide at the end of an enzymatic reaction. These different states of peptide are resolved by applying a potential difference across the sample. The presence of the charged phosphate group on the product (as opposed to the substrate) causes different peptide mobility between the two peptides. This is visualized by excitation of the fluorescent label on the substrate and product peptides and represented as peaks within the analysis software.
In order to measure inhibitor activity of FAK, inhibitors in the Caliper Life Sciences LC3000, a TTP Mosquito liquid handling instrument is used to place 0.25 ul of the appropriate concentration of inhibitor in 100% DMSO (for a dose response curve calculation) into each well of a 384-well plate. To this reaction components are added to a final volume of 25 ul: • 0.067 ng/ul GST-FAK (N-terminal GST fusion with truncated human FAK (376-1052 (end) amino acids)) • 100 uM ATP • 1 mM DTT • 1 mM MgCl2 • 1 uM substrate peptide (sequence FITC-KGWMEDYDYVHLQGKK-(CONH2)SEQ ID NO: 1)) • 1 mM FERM peptide (sequence NH2-GATQSFIIR-COOH (SEQ ID NO: 2)) • 100 mM HEPES pH 7.5 • 0.015% Brij-35
The reaction is incubated for 90 min at 25 C, and then stopped by the addition of 70 ul of Stop buffer (100 mM HEPES pH 7.5, 0.015% Brij-35, 10 mM EDTA).
The plate is read on a Caliper LC 3000 in an Off-Chip mobility shift assay format, using the following parameters for a 12-sipper chip: screening pressure—1.9 psi, upstream voltage—3000, downstream voltage—700. These conditions cause unphosphorylated substrate and phosphorylated product peptide to resolve as separate peaks allowing direct measurement of percentage of conversion of substrate to product. The percent conversion can be plotted against concentration of inhibitor to produce a sigmoid dose response curve, from which an IC50 can be calculated using XLFit for Microsoft Excel.

T1 sequence (Q05397 376-1052): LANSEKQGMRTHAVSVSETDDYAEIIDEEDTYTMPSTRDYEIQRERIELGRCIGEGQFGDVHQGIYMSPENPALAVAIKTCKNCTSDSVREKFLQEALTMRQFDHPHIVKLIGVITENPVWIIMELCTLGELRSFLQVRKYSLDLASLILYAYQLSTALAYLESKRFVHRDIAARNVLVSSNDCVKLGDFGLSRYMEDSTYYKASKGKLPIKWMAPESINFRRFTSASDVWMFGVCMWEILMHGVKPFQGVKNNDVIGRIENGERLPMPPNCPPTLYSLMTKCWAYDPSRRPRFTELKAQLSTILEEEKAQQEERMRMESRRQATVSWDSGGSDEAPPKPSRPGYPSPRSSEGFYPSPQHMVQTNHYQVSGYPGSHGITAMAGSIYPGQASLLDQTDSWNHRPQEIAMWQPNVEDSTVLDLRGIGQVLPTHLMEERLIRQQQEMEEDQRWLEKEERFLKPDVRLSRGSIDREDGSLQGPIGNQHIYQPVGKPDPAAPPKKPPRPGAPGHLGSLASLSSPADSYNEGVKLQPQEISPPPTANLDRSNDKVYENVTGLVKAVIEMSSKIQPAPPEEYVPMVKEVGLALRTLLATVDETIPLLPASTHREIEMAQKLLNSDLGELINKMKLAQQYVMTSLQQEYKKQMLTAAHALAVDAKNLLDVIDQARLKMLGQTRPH

For `Nc1ccc(-c2nccc(NCc3ccccc3C(F)(F)F)n2)cn1` [Compound 94, 2-(6-Aminopyridin-3-yl)-N-[2-(trifluoromethyl)benzyl]pyrimidin-4-amine], the IC50 – broadly, the concentration needed to halve the response being measured – was in the range of 1 to 10 µM.

Take `Cc1cccc(CNc2ccnc(-c3cccnc3N)n2)c1` [Compound 95, 2-(2-Aminopyridin-3-yl)-N-(3-methylbenzyl)pyrimidin-4-amine]: the 50% inhibitory concentration (IC50) was over 10 µM.

As for `Nc1ncccc1-c1nccc(NCc2ccc(C(F)(F)F)cc2)n1` [Compound 96, 2-(2-Aminopyridin-3-yl)-N-[4-(trifluoromethyl)benzyl]pyrimidin-4-amine], the IC50 is over 10 µM.

In the case of `COc1ccc(CNc2ccnc(-c3cccnc3N)n2)cc1` [Compound 97, 2-(2-Aminopyridin-3-yl)-N-(4-methoxybenzyl)pyrimidin-4-amine], the IC50 is over 10 µM.

Take `CS(=O)(=O)c1ccc(CNc2ccnc(-c3cccnc3N)n2)cc1` [Compound 99, 2-(2-Aminopyridin-3-yl)-N-[4-(methylsulfonyl)benzyl]pyrimidin-4-amine]: the IC50 was over 10 µM.

For the molecule `Nc1ncccc1-c1nccc(NCc2ncccc2C(F)(F)F)n1` [Compound 100, 2-(2-Aminopyridin-3-yl)-N-{[3-(trifluoromethyl)pyridin-2-yl]methyl}pyrimidin-4-amine], the IC50 lay within 1 to 10 µM.

As to `Cc1ccc(CNc2ccnc(-c3cccnc3N)n2)c(F)c1` [Compound 101, 2-(2-Aminopyridin-3-yl)-N-(2-fluoro-4-methylbenzyl)pyrimidin-4-amine], the IC50 was in the range of 1 to 10 µM.

Consider `Nc1ncccc1-c1nccc(NCc2cc(F)ccc2C(F)(F)F)n1` [Compound 102, 2-(2-Aminopyridin-3-yl)-N-[5-fluoro-2-(trifluoromethyl)benzyl]pyrimidin-4-amine], for which the IC50 was 1 to 10 µM.

With `Nc1ncccc1-c1nccc(NCc2cnccc2C(F)(F)F)n1` [Compound 103, 2-(2-Aminopyridin-3-yl)-N-{[4-(trifluoromethyl)pyridin-3-yl]methyl}pyrimidin-4-amine], the IC50 lay within 1 to 10 µM.

For the molecule `Nc1ncccc1-c1cccc(NCc2ccccc2C(F)(F)F)c1` [Compound 104, 3-(3-{[2-(Trifluoromethyl)benzyl]amino}phenyl)pyridin-2-amine], the IC50 was over 10 µM.

For the molecule `Nc1ncccc1-c1cccc(NCc2ccccc2F)c1` [Compound 105, 3-{3-[(2-Fluorobenzyl)amino]phenyl}pyridin-2-amine], the IC50 was over 10 µM.

As to `Nc1ncccc1-c1cc(NCc2ccccc2F)ccn1` [Compound 106, N4-(2-Fluorobenzyl)-2,3′-bipyridine-2′,4-diamine], the IC50 was over 10 µM.

As to `Nc1ncccc1-c1nccc(NCc2ccc(Cl)cc2C(F)(F)F)n1` [Compound 109, 2-(2-Aminopyridin-3-yl)-N-[4-chloro-2-(trifluoromethyl)benzyl]pyrimidin-4-amine], the IC50 lay within 0.1 to 1 µM.

For the molecule `Nc1ncccc1-c1nccc(NCc2c(F)cccc2C(F)(F)F)n1` [Compound 111, 2-(2-Aminopyridin-3-yl)-N-[2-fluoro-6-(trifluoromethyl)benzyl]pyrimidin-4-amine], the IC50 lay in the range of 1 to 10 µM.

For `Nc1ncccc1-c1cc(NCc2ccccc2C(F)(F)F)ccn1` [Compound 113, N4-[2-(trifluoromethyl)benzyl]-2,3′-bipyridine-2′,4-diamine], the IC50 lay within 1 to 10 µM.

Take `Nc1ncccc1-c1nccc(NC2CCOc3ccccc32)n1` (stereo not drawn) [Compound 116, 2-(2-Aminopyridin-3-yl)-N-(3,4-dihydro-2H-chromen-4-yl)pyrimidin-4-amine]: the IC50 was over 10 µM.

With `Nc1ncccc1-c1nccc(NCc2cccc3nsnc23)n1` [Compound 117, 2-(2-Aminopyridin-3-yl)-N-(2,1,3-benzothiadiazol-4-ylmethyl)pyrimidin-4-amine], the IC50 was 0.1 to 1 µM.

`Nc1ncccc1-c1nccc(N2Cc3ccccc3C2=O)n1` [Compound 120, 2-[2-(2-Aminopyridin-3-yl)pyrimidin-4-yl]isoindolin-1-one]: the IC50 was over 10 µM.

For the molecule `Nc1ncccc1-c1nccc(NCc2cccnc2)n1` [Compound 121, 2-(2-Aminopyridin-3-yl)-N-(pyridin-3-ylmethyl)pyrimidin-4-amine], the IC50 is over 10 µM.

On to `Nc1ncccc1-c1nccc(NCc2cccc3c2OCO3)n1` [Compound 122, 2-(2-Aminopyridin-3-yl)-N-(1,3-benzodioxol-4-ylmethyl)pyrimidin-4-amine], for which the IC50 lay within 0.1 to 1 µM.

As for `Nc1ncccc1-c1nccc(NCc2ccncc2)n1` [Compound 128, 2-(2-Aminopyridin-3-yl)-N-(pyridin-4-ylmethyl)pyrimidin-4-amine], the IC50 was over 10 µM.

Take `FC(F)(F)c1cncc(-c2nccc(NCc3cccc4nsnc34)n2)c1` [Compound 133, N-(2,1,3-Benzothiadiazol-4-ylmethyl)-2-[5-(trifluoromethyl)pyridin-3-yl]pyrimidin-4-amine]: the IC50 is under 0.1 µM.

`Nc1ncccc1-c1nccc(NCc2cccc3ccnn23)n1` [Compound 135, 2-(2-Aminopyridin-3-yl)-N-(pyrazolo[1,5-a]pyridin-7-ylmethyl)pyrimidin-4-amine]: the IC50 is over 10 µM.

As for `Nc1ncc(C(F)(F)F)cc1-c1nccc(NCc2ccccc2C(F)(F)F)n1` [Compound 136, 2-[2-Amino-5-(trifluoromethyl)pyridin-3-yl]-N-[2-(trifluoromethyl)benzyl]pyrimidin-4-amine], the IC50 is under 0.1 µM.

Regarding `Nc1ncccc1-c1nccc(NCc2cccnc2C(F)(F)F)n1` [Compound 137, 2-(2-Aminopyridin-3-yl)-N-{[2-(trifluoromethyl)pyridin-3-yl]methyl}pyrimidin-4-amine], the IC50 fell in the range of 1 to 10 µM.

As to `C[C@H](Nc1ccnc(-c2cccnc2N)n1)c1ccccc1C(F)(F)F` [Compound 138, 2-(2-Aminopyridin-3-yl)-N-{(1S)-1-[2-(trifluoromethyl)phenyl]ethyl}pyrimidin-4-amine], the IC50 fell in the range of 1 to 10 µM.

As for `c1ccc(CNc2ccnc(-c3cccnc3)n2)cc1` [Compound 139, N-Benzyl-2-pyridin-3-ylpyrimidin-4-amine], the IC50 is over 10 µM.

Consider `Cc1cc(NCc2cccc(C(F)(F)F)c2)nc(-c2cccnc2)n1` [Compound 140, 6-Methyl-2-pyridin-3-yl-N-[3-(trifluoromethyl)benzyl]pyrimidin-4-amine], for which the IC50 is over 10 µM.

Take `Cc1cc(NCc2ccccc2)nc(-c2cccnc2)n1` [Compound 141, N-Benzyl-6-methyl-2-pyridin-3-ylpyrimidin-4-amine]: the IC50 is over 10 µM.

Turning to `Cc1cc(NCc2cccc(F)c2)nc(-c2cccnc2)n1` [Compound 142, N-(3-Fluorobenzyl)-6-methyl-2-pyridin-3-ylpyrimidin-4-amine], the IC50 was over 10 µM.

For `CNCC(Nc1ccnc(-c2cccnc2)n1)c1ccccc1` (stereo not drawn) [Compound 143, N2-Methyl-1-phenyl-N1-(2-pyridin-3-ylpyrimidin-4-yl)ethane-1,2-diamine], the IC50 is over 10 µM.

As to `CNCC(Nc1ccnc(-c2cccnc2N)n1)c1ccccc1` (stereo not drawn) [Compound 144, N1-[2-(2-Aminopyridin-3-yl)pyrimidin-4-yl]-N2-methyl-1-phenylethane-1,2-diamine], the IC50 was over 10 µM.

Regarding `CNC[C@@H](Nc1ccnc(-c2cccnc2N)n1)c1cccc(F)c1` [Compound 145, (S)-N1-[2-(2-Amino-pyridin-3-yl)-pyrimidin-4-yl]-1-(3-fluoro-phenyl)-N2-methyl-ethane-1,2-diamine], the 50% inhibitory concentration (IC50) is over 10 µM.
